According to PubChem BioAssay AID2060362 (Molecular Pharmacology Branch, DTP, NCI, 2025):
Where “and” joins values, the source holds several entries; their conditions need not be identical. Identical values can stand only once.

System: 128128-338-R-J1-PDC spheroids, viability % test/control
Assay: Anticancer human tumor 128128-338-R-J1-PDC patient-derived melanoma cell line growth inhibition [TAK]
Conditions: spheroids with HUVEC and MSC; for viability, T/C: stronger effect = lower value; for IC50: curve of compound
From the text: Combinatorial screen of targeted agents with TAK-243 and ipatasertib in multi-cell type tumor spheroids
A high-throughput screen of multi-cell type tumor spheroids was designed to identify active combinations of targeted small molecules and TAK-243 or ipatasertib. Complex spheroids include a stromal component modeled by human endothelial cells (HUVEC) and fibroblasts modeled by human mesenchymal stem cells (MSCs). The concentration ranges selected for each drug and investigational agent were based upon clinically achievable concentrations if the clinical Cmax of the agent was known.
Compounds. The drugs and investigational agents: TAK-243 (785004), ipatasertib (767898), everolimus (733504), selumetinib (741078), bortezomib (756655), trametinib (758246), ixazomib (758254), vemurafenib (761431), dabrafenib (764134), sapanisertib (764658), alpelisib (765974), and copanlisib (816437), were obtained from the National Cancer Institute (NCI) Developmental Therapeutics Program Chemical Repository. The FDA-approved anticancer drug set is available from the NCI Developmental Therapeutics Program. […] The stock solutions were prepared in dimethyl sulfoxide (DMSO, Sigma-Aldrich, St. Louis, MO, cat. D2650) at 800-fold the tested concentration and stored at -70 degrees C prior to their use. All drugs and investigational agents were tested over a range starting from a high concentration at or near the clinical Cmax and decreasing in half-log increments. If the clinical Cmax for an agent had not been determined, the highest concentration tested was 10 microM.
NCI60 Cell Culture. NCI60 cell lines were obtained from the NCI Developmental Therapeutics Program Tumor Repository. For each lot of cells, the Repository performed Applied Biosystems AmpFLSTR Identifiler testing with PCR amplification to confirm consistency with the published Identifier STR profile for each cell line. Cells were kept in continuous culture for no more than 20 passages. The optimal seeding densities for each of the cell lines at each time point assessed were determined prior to performing the concentration response studies. Briefly, the NCI60 human tumor lines were grown as monolayers in RPMI 1640 medium supplemented with 10% FBS and 2 mmol/L L-glutamine.
An additional 2 lines were from the NCI60 cell line panel including melanomas, MALME-3M and SK-MEL-2. Pooled donor human umbilical vein endothelial cells (HUVEC, Lonza, cat. CC-2519) and human mesenchymal stem cells (hMSC, Lonza, cat. PT-2501) were purchased from Lonza (Walkersville, MD).
PDMR cell lines were grown in complete medium (DC medium): Dulbecco's modified Eagle's medium (DMEM)/F12 supplemented with 5% fetal bovine serum (FBS), 2 mM L-glutamine, 100 U/mL penicillin and 100 µg/ml streptomycin, 0.4 µg/ml hydrocortisone, 10 ng/ml epidermal growth factor (EGF) recombinant human protein, 24 µg/mL adenine, and 0.1 mg/mL primocin. During culture from frozen stock vials, PDMR cells were cultured in the same medium containing 10 µM Y-27632 (see Table 3). The PDCs were cultured in complete DMEM/F12 media without 10 microM Y-27632 dihydrochloride for at least two passages prior to the screen. The pooled donor HUVEC and hMSC were cultured in endothelial cell growth medium 2 (PromoCell, Heidelberg, Germany, cat. C-22011) and mesenchymal stem cell growth medium 2 (PromoCell, cat. C-28009), respectively. For all experiments, HUVEC and hMSC were used at passages </=5.
For the pre-screen, cell seeding densities were determined from a titration spanning the range from 5,000 to 313 cells per well. The mct-spheroids including 60% malignant cells, 25% HUVEC and 15% MSC dispensed as a mixture into U-bottom Ultra-Low Attachment 384-well plates (Corning, NY)
High-throughput Drug Combination Screening.
Prior to their inoculation into 384-well plates, malignant cells, HUVEC, and hMSC were removed from T flasks using TrypLE express (Thermo Fisher Scientific, cat. 12605036) and harvested by centrifugation for 5 min at 233 x g. […]
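Further: spheroids exposed to compounds for 7 days.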
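Wherever viability, T/C is given: 100% = DMSO vehicle wells.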

In the case of `CC(=O)Nc1cccc(-n2c(=O)n(C3CC3)c(=O)c3c(Nc4ccc(I)cc4F)n(C)c(=O)c(C)c32)c1`, the viability, T/C (compound 94.9 pM) is reported as 98.2% and 101%, the viability, T/C (compound 0.0003 µM) is reported as 97.9% and 94.4% and the viability, T/C (compound 0.000949 µM) is reported as 82.8% and 70%. For the same compound, the viability, T/C (compound 0.003 µM) was 41.4% and 25.6%, the viability, T/C (compound 0.00949 µM) was 5.07% and 3.1% and the viability, T/C (compound 0.03 µM) was 2.37% and 2.18%. For the same compound, the IC50 was 2.32 nM and 1.58 nM.

For `CC(C)(C)c1nc(-c2cccc(NS(=O)(=O)c3c(F)cccc3F)c2F)c(-c2ccnc(N)n2)s1`, the viability, T/C (compound 0.0316 µM) was 61.1% and 60.1%, the viability, T/C (compound 0.1 µM) was 23.9% and 24% and the viability, T/C (compound 0.316 µM) was 4.21% and 5.44%. The viability, T/C (compound 1 µM) was 2.39% and 2.26%, the viability, T/C (compound 3.16 µM) was 2.82% and 2.69% and the viability, T/C (compound 10 µM) was 17.2% and 16.2%. The IC50 was 44.7 nM and 43.6 nM.

In the case of `CC(C)CC(NC(=O)C(Cc1ccccc1)NC(=O)c1cnccn1)B(O)O` (stereo not given), the viability, T/C (compound 31.6 pM) is reported as 107% and 105%, the viability, T/C (compound 0.0001 µM) is reported as 108% and 96.7% and the viability, T/C (compound 0.000316 µM) is reported as 99.3% and 93%. The viability, T/C (compound 0.001 µM) was 102% and 90.6%, the viability, T/C (compound 0.00316 µM) was 6.95% and 5.71% and the viability, T/C (compound 0.01 µM) was 0.2% and 0.52%. The IC50 was 1.88 nM and 1.73 nM.

With `CC(C)CC(NC(=O)CNC(=O)c1cc(Cl)ccc1Cl)B1OC(=O)CC(CC(=O)O)(C(=O)O)O1` (stereo not given) the viability, T/C (compound 0.000316 µM) was 102% and 104%, the viability, T/C (compound 0.001 µM) was 95.7% and 102% and the viability, T/C (compound 0.00316 µM) was 102% and 99%. The viability, T/C (compound 0.01 µM) was 39.4% and 38.7%, the viability, T/C (compound 0.0316 µM) was 3.88% and 2.92% and the viability, T/C (compound 0.1 µM) was 0.22% and 0.2%. For the same compound, the IC50 was 8.17 nM and 8.06 nM.

`CC(C)NCC(C(=O)N1CCN(c2ncnc3c2C(C)CC3O)CC1)c1ccc(Cl)cc1` (stereo not given) was tested, and the viability, T/C (compound 0.3 µM) was 102% [middle of 10 runs], the viability, T/C (compound 0.949 µM) was 93% [middle of 10 runs] and the viability, T/C (compound 3 µM) was 89.2% [middle of 10 runs]. For the same compound, the viability, T/C (compound 9.49 µM) was 69.5% [middle of 10 runs] and the viability, T/C (compound 30 µM) was 22.7% [middle of 10 runs].

`CC(C)n1nc(-c2ccc3oc(N)nc3c2)c2c(N)ncnc21` was tested, and the viability, T/C (compound 0.000316 µM) was 99.1% and 106%, the viability, T/C (compound 0.001 µM) was 94.7% and 96.1% and the viability, T/C (compound 0.00316 µM) was 83.2% and 80.7%. The viability, T/C (compound 0.01 µM) was 67.3% and 64.7%, the viability, T/C (compound 0.0316 µM) was 31.2% and 30.5% and the viability, T/C (compound 0.1 µM) was 6.18% and 6.1%. For the same compound, the IC50 was 16.9 nM and 15.7 nM.

For `CCCS(=O)(=O)Nc1ccc(F)c(C(=O)c2c[nH]c3ncc(-c4ccc(Cl)cc4)cc23)c1F`, the viability, T/C (compound 0.316 µM) was 79.4% and 79.2%, the viability, T/C (compound 1 µM) was 60.5% and 59.8% and the viability, T/C (compound 3.16 µM) was 12.7% and 14.3%. For the same compound, the viability, T/C (compound 10 µM) was 0.39% and 0.64%, the viability, T/C (compound 31.6 µM) was 1.44% and 0.22% and the viability, T/C (compound 100 µM) was 1.11% and 5.48%. The IC50 was 1290 nM and 1280 nM.

For `COC1CC2CCC(C)C(O)(O2)C(=O)C(=O)N2CCCCC2C(=O)OC(C(C)CC2CCC(OCCO)C(OC)C2)CC(=O)C(C)C=C(C)C(O)C(OC)C(=O)C(C)CC(C)C=CC=CC=C1C` (stereo not given), the viability, T/C (compound 0.000316 µM) was 108% and 104%, the viability, T/C (compound 0.001 µM) was 102% and the viability, T/C (compound 0.00316 µM) was 96.4% and 93.1%. The viability, T/C (compound 0.01 µM) was 79.5% and 86.7%, the viability, T/C (compound 0.0316 µM) was 64.5% and 67.5% and the viability, T/C (compound 0.1 µM) was 51.6% and 53.8%. It also gave an IC50 of over 100 nM.

`COc1c(OCCCN2CCOCC2)ccc2c3n(c(=NC(=O)c4cnc(N)nc4)nc12)CCN3` was tested, and the viability, T/C (compound 0.00316 µM) was 109% and 105%, the viability, T/C (compound 0.01 µM) was 99.4% and 96.6% and the viability, T/C (compound 0.0316 µM) was 99.3% and 84.1%. For the same compound, the viability, T/C (compound 0.1 µM) was 75.9% and 72%, the viability, T/C (compound 0.316 µM) was 21.6% and 15.2% and the viability, T/C (compound 1 µM) was 8.68% and 5.59%. The IC50 was 173 nM and 153 nM.

With `Cc1nc(NC(=O)N2CCCC2C(N)=O)sc1-c1ccnc(C(C)(C)C(F)(F)F)c1` (stereo not given) the viability, T/C (compound 0.0316 µM) was 96.8% and 97.9%, the viability, T/C (compound 0.1 µM) was 98% and 97.4% and the viability, T/C (compound 0.316 µM) was 96% and 95.9%. The viability, T/C (compound 1 µM) was 96.9% and 92.3%, the viability, T/C (compound 3.16 µM) was 90.8% and 88.5% and the viability, T/C (compound 10 µM) was 81.5% and 71.4%. It also gave an IC50 of over 10000 nM.

In the case of `Cn1cnc2c(F)c(Nc3ccc(Br)cc3Cl)c(C(=O)NOCCO)cc21`, the viability, T/C (compound 0.00949 µM) is reported as 95.7% and 94.9%, the viability, T/C (compound 0.03 µM) is reported as 75.4% and 82.6% and the viability, T/C (compound 0.0949 µM) is reported as 44.2% and 50.7%. The viability, T/C (compound 0.3 µM) was 9.03% and 14.9%, the viability, T/C (compound 0.949 µM) was 3.38% and 4.34% and the viability, T/C (compound 3 µM) was 3.13% and 2.58%. For the same compound, the IC50 was 72.1 nM and 94.6 nM.
